Experimental data from PubChem BioAssay AID1919008 (Molecular Pharmacology Branch, DTP, NCI, 2023).

System: DMS-114 complex spheroids with HUVEC/MSC, growth % test/control
Test: Anticancer human tumor DMS-114 cell line growth inhibition [AhR];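 note: spheroids exposed to agents for 7 days before readout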;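 for viability, T/C: 100% = DMSO vehicle control wells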
Conditions: for IC50: curve of first compound; for viability, T/C: stronger effect = lower value
How it was run: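 Agents were dosed in half-log steps down from roughly clinical Cmax, or from 10 microM where Cmax was unknown, alone and with AhR antagonists. Read-out: percent test/control growth of tumor spheroids containing HUVEC and MSC stromal cells.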

[1] = second compound 0.1 µM, first compound 0.0316 µM
[2] = second compound 0.1 µM, first compound 0.1 µM
[3] = second compound 0.1 µM, first compound 0.316 µM
[4] = second compound 0.1 µM, first compound 1 µM
[5] = second compound 0.1 µM, first compound 3.16 µM
[6] = second compound 0.1 µM, first compound 10 µM
[7] = second compound 0.316 µM, first compound 0.0316 µM
[8] = second compound 0.316 µM, first compound 0.1 µM
[9] = second compound 0.316 µM, first compound 0.316 µM
[10] = second compound 0.316 µM, first compound 1 µM
[11] = second compound 0.316 µM, first compound 3.16 µM
[12] = second compound 0.316 µM, first compound 10 µM
[13] = second compound 1 µM, first compound 0.0316 µM
[14] = second compound 1 µM, first compound 0.1 µM
[15] = second compound 1 µM, first compound 0.316 µM
[16] = second compound 1 µM, first compound 1 µM
[17] = second compound 1 µM, first compound 3.16 µM
[18] = second compound 1 µM, first compound 10 µM
[19] = second compound 3.16 µM, first compound 0.0316 µM
[20] = second compound 3.16 µM, first compound 0.1 µM
[21] = second compound 3.16 µM, first compound 0.316 µM
[22] = second compound 3.16 µM, first compound 1 µM
[23] = second compound 3.16 µM, first compound 3.16 µM
[24] = second compound 3.16 µM, first compound 10 µM
[25] = second compound 10 µM, first compound 0.0316 µM
[26] = second compound 10 µM, first compound 0.1 µM
[27] = second compound 10 µM, first compound 0.316 µM
[28] = second compound 10 µM, first compound 1 µM
[29] = second compound 10 µM, first compound 3.16 µM
[30] = second compound 10 µM, first compound 10 µM
[31] = second compound 0.1 µM, first compound 0.00949 µM
[32] = second compound 0.1 µM, first compound 0.03 µM
[33] = second compound 0.1 µM, first compound 0.0949 µM
[34] = second compound 0.1 µM, first compound 0.3 µM
[35] = second compound 0.316 µM, first compound 0.00949 µM
[36] = second compound 0.316 µM, first compound 0.03 µM
[37] = second compound 0.316 µM, first compound 0.0949 µM
[38] = second compound 0.316 µM, first compound 0.3 µM
[39] = second compound 1 µM, first compound 0.00949 µM
[40] = second compound 1 µM, first compound 0.03 µM
[41] = second compound 1 µM, first compound 0.0949 µM
[42] = second compound 1 µM, first compound 0.3 µM
[43] = second compound 3.16 µM, first compound 0.00949 µM
[44] = second compound 3.16 µM, first compound 0.03 µM
[45] = second compound 3.16 µM, first compound 0.0949 µM
[46] = second compound 3.16 µM, first compound 0.3 µM
[47] = second compound 10 µM, first compound 0.00949 µM
[48] = second compound 10 µM, first compound 0.03 µM
[49] = second compound 10 µM, first compound 0.0949 µM
[50] = second compound 10 µM, first compound 0.3 µM

Structure (SMILES): CC1(C)CCC(CN2CCN(c3ccc(C(=O)NS(=O)(=O)c4ccc(NCC5CCOCC5)c([N+](=O)[O-])c4)c(Oc4cnc5[nH]ccc5c4)c3)CC2)=C(c2ccc(Cl)cc2)C1 + Cc1ccccc1N=Nc1ccc(NC(=O)c2ccnn2C)c(C)c1
- IC50 (second compound 0.1 µM): > 10000 nM
- IC50 (second compound 0.316 µM): > 10000 nM
- IC50 (second compound 1 µM): > 10000 nM
- IC50 (second compound 3.16 µM): > 10000 nM
- IC50 (second compound 10 µM): > 10000 nM
- viability, T/C [1]: 103%
- viability, T/C [2]: 100%
- viability, T/C [3]: 112%
- viability, T/C [4]: 114%
- viability, T/C [5]: 120%
- viability, T/C [6]: 107%
- viability, T/C [7]: 120%
- viability, T/C [8]: 112%
- viability, T/C [9]: 105%
- viability, T/C [10]: 104%
- viability, T/C [11]: 117%
- viability, T/C [12]: 118%
- viability, T/C [13]: 105%
- viability, T/C [14]: 107%
- viability, T/C [15]: 113%
- viability, T/C [16]: 111%
- viability, T/C [17]: 117%
- viability, T/C [18]: 102%
- viability, T/C [19]: 99.8%
- viability, T/C [20]: 104%
- viability, T/C [21]: 103%
- viability, T/C [22]: 110%
- viability, T/C [23]: 114%
- viability, T/C [24]: 105%
- viability, T/C [25]: 104%
- viability, T/C [26]: 102%
- viability, T/C [27]: 101%
- viability, T/C [28]: 104%
- viability, T/C [29]: 101%
- viability, T/C [30]: 87.1%

Structure (SMILES): CCN(c1cc(-c2ccc(CN3CCOCC3)cc2)cc(C(=O)NCc2c(C)cc(C)[nH]c2=O)c1C)C1CCOCC1 + Cc1ccccc1N=Nc1ccc(NC(=O)c2ccnn2C)c(C)c1
- IC50 (second compound 0.1 µM): > 3000 nM
- IC50 (second compound 0.316 µM): > 3000 nM
- IC50 (second compound 1 µM): > 3000 nM
- IC50 (second compound 3.16 µM): > 3000 nM
- IC50 (second compound 10 µM): > 3000 nM
- viability, T/C [31]: 97.5%
- viability, T/C [32]: 105%
- viability, T/C [33]: 111%
- viability, T/C [34]: 114%
- viability, T/C (second compound 0.1 µM, first compound 0.949 µM): 101%
- viability, T/C (second compound 0.1 µM, first compound 3 µM): 102%
- viability, T/C [35]: 105%
- viability, T/C [36]: 101%
- viability, T/C [37]: 104%
- viability, T/C [38]: 113%
- viability, T/C (second compound 0.316 µM, first compound 0.949 µM): 108%
- viability, T/C (second compound 0.316 µM, first compound 3 µM): 100%
- viability, T/C [39]: 108%
- viability, T/C [40]: 101%
- viability, T/C [41]: 110%
- viability, T/C [42]: 110%
- viability, T/C (second compound 1 µM, first compound 0.949 µM): 112%
- viability, T/C (second compound 1 µM, first compound 3 µM): 98.8%
- viability, T/C [43]: 108%
- viability, T/C [44]: 104%
- viability, T/C [45]: 110%
- viability, T/C [46]: 102%
- viability, T/C (second compound 3.16 µM, first compound 0.949 µM): 107%
- viability, T/C (second compound 3.16 µM, first compound 3 µM): 105%
- viability, T/C [47]: 106%
- viability, T/C [48]: 104%
- viability, T/C [49]: 102%
- viability, T/C [50]: 108%
- viability, T/C (second compound 10 µM, first compound 0.949 µM): 103%
- viability, T/C (second compound 10 µM, first compound 3 µM): 102%

Structure (SMILES): Cn1ncnc1C1c2n[nH]c(=O)c3cc(F)cc(c23)NC1c1ccc(F)cc1 (stereo not given) + Cc1ccccc1N=Nc1ccc(NC(=O)c2ccnn2C)c(C)c1
- IC50 (second compound 0.1 µM): > 100 nM
- IC50 (second compound 0.316 µM): > 100 nM
- IC50 (second compound 1 µM): > 100 nM
- IC50 (second compound 3.16 µM): > 100 nM
- IC50 (second compound 10 µM): > 100 nM
- viability, T/C (second compound 0.1 µM, first compound 0.000316 µM): 118%
- viability, T/C (second compound 0.1 µM, first compound 0.001 µM): 101%
- viability, T/C (second compound 0.1 µM, first compound 0.00316 µM): 111%
- viability, T/C (second compound 0.1 µM, first compound 0.01 µM): 110%
- viability, T/C [1]: 120%
- viability, T/C [2]: 107%
- viability, T/C (second compound 0.316 µM, first compound 0.000316 µM): 104%
- viability, T/C (second compound 0.316 µM, first compound 0.001 µM): 105%
- viability, T/C (second compound 0.316 µM, first compound 0.00316 µM): 104%
- viability, T/C (second compound 0.316 µM, first compound 0.01 µM): 113%
- viability, T/C [7]: 104%
- viability, T/C [8]: 112%
- viability, T/C (second compound 1 µM, first compound 0.000316 µM): 103%
- viability, T/C (second compound 1 µM, first compound 0.001 µM): 112%
- viability, T/C (second compound 1 µM, first compound 0.00316 µM): 108%
- viability, T/C (second compound 1 µM, first compound 0.01 µM): 101%
- viability, T/C [13]: 111%
- viability, T/C [14]: 113%
- viability, T/C (second compound 3.16 µM, first compound 0.000316 µM): 96%
- viability, T/C (second compound 3.16 µM, first compound 0.001 µM): 104%
- viability, T/C (second compound 3.16 µM, first compound 0.00316 µM): 102%
- viability, T/C (second compound 3.16 µM, first compound 0.01 µM): 111%
- viability, T/C [19]: 98.3%
- viability, T/C [20]: 104%
- viability, T/C (second compound 10 µM, first compound 0.000316 µM): 93.5%
- viability, T/C (second compound 10 µM, first compound 0.001 µM): 93.3%
- viability, T/C (second compound 10 µM, first compound 0.00316 µM): 90%
- viability, T/C (second compound 10 µM, first compound 0.01 µM): 96.2%
- viability, T/C [25]: 95.1%
- viability, T/C [26]: 95%

Structure (SMILES): NS(=O)(=O)OCC1CC(n2ccc3c(NC4CCc5ccccc54)ncnc32)CC1O (stereo not given) + Cc1ccccc1N=Nc1ccc(NC(=O)c2ccnn2C)c(C)c1
- IC50 (second compound 0.1 µM): 229 nM
- IC50 (second compound 0.316 µM): 203 nM
- IC50 (second compound 1 µM): 201 nM
- IC50 (second compound 3.16 µM): 228 nM
- IC50 (second compound 10 µM): 215 nM
- viability, T/C [1]: 137%
- viability, T/C [2]: 84.8%
- viability, T/C [3]: 37%
- viability, T/C [4]: 18.4%
- viability, T/C [5]: 19%
- viability, T/C [6]: 16.1%
- viability, T/C [7]: 113%
- viability, T/C [8]: 73.9%
- viability, T/C [9]: 34.3%
- viability, T/C [10]: 22.8%
- viability, T/C [11]: 17.2%
- viability, T/C [12]: 16.3%
- viability, T/C [13]: 119%
- viability, T/C [14]: 76.7%
- viability, T/C [15]: 32%
- viability, T/C [16]: 23.4%
- viability, T/C [17]: 21.6%
- viability, T/C [18]: 17.3%
- viability, T/C [19]: 128%
- viability, T/C [20]: 80.9%
- viability, T/C [21]: 37.6%
- viability, T/C [22]: 24.1%
- viability, T/C [23]: 19.9%
- viability, T/C [24]: 21.3%
- viability, T/C [25]: 86.5%
- viability, T/C [26]: 77.5%
- viability, T/C [27]: 35.9%
- viability, T/C [28]: 25.7%
- viability, T/C [29]: 22.4%
- viability, T/C [30]: 20.1%

Structure (SMILES): Nc1ncn(C2CC(O)C(CO)S2)c(=O)n1 (stereo not given) + Cc1ccccc1N=Nc1ccc(NC(=O)c2ccnn2C)c(C)c1
- IC50 (second compound 0.1 µM): > 300 nM
- IC50 (second compound 0.316 µM): > 300 nM
- IC50 (second compound 1 µM): > 300 nM
- IC50 (second compound 3.16 µM): > 300 nM
- IC50 (second compound 10 µM): > 300 nM
- viability, T/C (second compound 0.1 µM, first compound 0.000949 µM): 94.1%
- viability, T/C (second compound 0.1 µM, first compound 0.003 µM): 96.7%
- viability, T/C [31]: 106%
- viability, T/C [32]: 101%
- viability, T/C [33]: 98.6%
- viability, T/C [34]: 88.6%
- viability, T/C (second compound 0.316 µM, first compound 0.000949 µM): 94.9%
- viability, T/C (second compound 0.316 µM, first compound 0.003 µM): 96.3%
- viability, T/C [35]: 103%
- viability, T/C [36]: 105%
- viability, T/C [37]: 111%
- viability, T/C [38]: 95.5%
- viability, T/C (second compound 1 µM, first compound 0.000949 µM): 101%
- viability, T/C (second compound 1 µM, first compound 0.003 µM): 102%
- viability, T/C [39]: 99.2%
- viability, T/C [40]: 105%
- viability, T/C [41]: 117%
- viability, T/C [42]: 98.9%
- viability, T/C (second compound 3.16 µM, first compound 0.000949 µM): 113%
- viability, T/C (second compound 3.16 µM, first compound 0.003 µM): 93.4%
- viability, T/C [43]: 96.9%
- viability, T/C [44]: 105%
- viability, T/C [45]: 91.7%
- viability, T/C [46]: 91.3%
- viability, T/C (second compound 10 µM, first compound 0.000949 µM): 99.4%
- viability, T/C (second compound 10 µM, first compound 0.003 µM): 97.3%
- viability, T/C [47]: 92.3%
- viability, T/C [48]: 94.3%
- viability, T/C [49]: 91.7%
- viability, T/C [50]: 74.7%
